# Measurements published in patent publication US20220105157A1, “Compositions and Methods for Promoting Angiogenesis in the Eye” (The Regents of the University of California, priority 2019, published 2022).
# Experiments:
# [1] = system: bovine choroidal endothelial (BCE) cells; assay: BCE endothelial cell proliferation assay (alamar blue); assay type: cell-based
# Protocol: The bovine endothelial proliferation assays were performed essentially as previously described (63, 64). BCE (1×10^3 cells/well) or BRE (5×10^2 cells/well) cells were seeded in 96-well plates in the culture medium (DMEM-low glucose supplemented with 10% BCS, 2 mM glutamine and antibiotics) plus testing materials with a total volume of 200 μl per well. BAE cells were plated in 96-well plates at a density of 2×10^3 cells in the culture medium (DMEM-low glucose supplemented with 1% BCS and antibiotics) plus testing material with a total volume of 200 μl per well. HRME cells were seeded at a density of 1×10^3 cells/well in gelatin-coated 96-well plates in assay medium (DMEM-low glucose supplemented with 20% FBS and antibiotics) plus testing materials to make a total volume 200 μl per well. For assays involving antibodies or small-molecule inhibitors, inhibitors or vehicle controls were first added and then test materials were added one hour later. After 6 days (unless otherwise specified), cells were incubated with alamar blue for 4 h. Fluorescence was measured at 530 nm excitation wavelength and 590 nm emission wavelength. Each experiment was carried out in duplicate/triplicate and repeated at least three times.
# BAE cells = assay: Gene and protein expression in LIF-treated BAE cells (RNA-seq, qRT-PCR, cathepsin L ELISA); assay type: cell-based, bovine
# Protocol: VEGF and LIF levels in LN-229 CM samples were determined by a human VEGF ELISA kit (R&D Systems, CAT #DVE00) and a human LIF ELISA kit (Biolegend, CAT #443507) according to manufacturers' instructions, respectively. Cathepsin L levels in BAE cells were measured using a bovine cathepsin L ELISA kit (MyBioSource, Inc, CAT #MBS2887609) per manufacturer's instructions.
# BCE and BAE cells, after the indicated treatments, were lysed with Trizol reagent (Invitrogen, CAT #15596026) and subjected to RNA extraction following manufacturer's instructions. RNA concentrations were determined with Nanodrop 2000 (ThermoFisher Scientific) and 1 μg of total RNAs were reverse-transcribed to cDNAs using the High-Capacity cDNA Reverse Transcription Kit (Applied Biosystems, CAT #4368814). Equal amounts (generally 10 ng/reaction) of cDNAs were subjected to qRT-PCR analyses using the TaqMan Fast Advanced Master Mix (Applied Biosystems, CAT #4444557) and the ViiA7 Real-time PCR system. Relative mRNA levels of the examined genes were normalized to the internal control RPLP0 (Ribosomal Protein Lateral Stalk Subunit P0), determined by comparing with control sample group, and reported as fold changes. TaqMan gene expression assay probes were used: bovine RPLP0 (Bt03218086_ml), bovine STAT3 (Bt03259865_ml), bovine CTSL1 (Bt03257307_ml and Bt03257309_ml), bovine CTSB (Bt03259161_ml), bovine MYC (Bt03260377_ml), bovine JunB (Bt03246919_s1), bovine CCNA2 (Bt03240503_g1), bovine CCNB1 (Bt03237853_g1), and bovine PIM1 (Bt03212957_ml). The experiment was carried out in triplicate and repeated three times.
substance,measurement,setting,value
"LIF: recombinant human leukemia inhibitory factor, a member of the IL-6 family of cytokines",stimulation of BCE cell growth (mitogenic activity),[1],stimulated growth of BCE cells
same,upregulation of IGFBP3,"BAE cells; BAE cells incubated with LIF for 6 hours, RNA-seq, confirmed by qRT-PCR",approximately 8 fold
same,cyclin A/B expression,"BAE cells; BAE cells, LIF 10 ng/ml 24 hours, qRT-PCR",downregulation
same,CTSB (cathepsin B) levels,"BAE cells; BAE cells, LIF 24 hours",not CTSB
same,CTSL (cathepsin L) mRNA and protein levels,"BAE cells; BAE cells, LIF 24 hours",dramatically upregulated
same,PIM1 expression,"BAE cells; BAE cells, LIF treatment",induction
